Assay results as given in patent publication EP1266900A1, “Carbamates of rapamycin” (Wyeth, priority 1992, dated 1994).
Values joined by “and” are separate entries in the source; they are usually repeats but may differ in a detail not shown here. Equal values may be shown once. Where a name gives a salt, the structure may show the parent alone. Read-outs that look alike come from different tables or passages of the source.

What was measured:
[1] = tested on: cells from the thymus of normal BALB/c mice; experiment: comitogen-induced thymocyte proliferation procedure (LAF); assay type: cell-based; settings: for IC50: thymocytes cultured for 72 hours with PHA and IL-1, tritiated thymidine incorporation, read-out: LAF IC50; for LAF (ratio): ratio compared with rapamycin, greater than 1 = inhibited thymocyte proliferation to a greater extent than rapamycin
Description: (§1) Immunosuppressive activity for representative compounds of this invention was evaluated in an in vitro standard pharmacological test procedure to measure lymphocyte proliferation (LAF) and in an in vivo standard pharmacological test procedure which evaluated the survival time of a pinch skin graft.
The comitogen-induced thymocyte proliferation procedure (LAF) was used as an in vitro measure of the immunosuppressive effects of representative compounds. Briefly, cells from the thymus of normal BALB/c mice are cultured for 72 hours with PHA and IL-1 and pulsed with tritiated thymidine during the last six hours. Cells are cultured with and without various concentrations of rapamycin, cyclosporin A, or test compound. Cells are harvested and incorporated radioactivity is determined. Inhibition of lymphoproliferation is assessed as percent change in counts per minute from non-drug treated controls. For each compound evaluated, rapamycin was also evaluated for the purpose of comparison. An IC50 was obtained for each test compound as well as for rapamycin. […] A positive ratio indicates immunosuppressive activity. […] Calculation of the ratio is shown below. (()^3 H-control thymus cells -)/(()^3 H-control thymus cells -)(()^3 H-rapamycin-treated thymus cells)/(()^3 H-test compound-treated cells) [formula]

pinch skin graft = pinch skin graft survival time, in vivo; parameters: species or system male C3H(H-2K) recipients; settings: dose of 4 mg/kg, intraperitoneally or orally, untreated grafts usually rejected within 6-7 days
Description: as §1
Representative compounds of this invention were also evaluated in an in vivo test procedure designed to determine the survival time of pinch skin graft from male BAB/c donors transplanted to male C3H(H-2K) recipients. The method is adapted from Billingham R.E. and Medawar P.B., J. Exp. Biol. 28:385-402, (1951). Briefly, a pinch skin graft from the donor was grafted on the dorsum of the recipient as a allograft, and an isograft was used as control in the same region. The recipients were treated with either varying concentrations of test compounds intraperitoneally or orally. Rapamycin was used as a test control. Untreated recipients serve as rejection control. The graft was monitored daily and observations were recorded until the graft became dry and formed a blackened scab. This was considered as the rejection day. The mean graft survival time (number of days ± S.D.) of the drug treatment group was compared with the control group. […] Results are expressed as the mean survival time in days. Untreated (control) pinch skin grafts are usually rejected within 6-7 days. The results shown in Table 1 are based on a dose of 4 mg/kg of test compound. A survival time of 12.0 ± 1.7 days was obtained for rapamycin at 4 mg/kg.

SMILES	IC50 ([1]; Mus musculus, Thymocyte, 72 h)	LAF (ratio) [1]	further results
CO[C@H]1C[C@@H]2CC[C@@H](C)[C@@](O)(O2)C(=O)C(=O)N2CCCC[C@H]2C(=O)O[C@H]([C@H](C)C[C@@H]2CC[C@@H](OC(N)=O)[C@H](OC)C2)CC(=O)[C@H](C)/C=C(\C)[C@@H](O)[C@@H](OC)C(=O)[C@H](C)C[C@H](C)/C=C/C=C/C=C/1C [Example 1, Rapamycin 42-ester with carbamic acid]	1.7 nM	1.29	Skin Graft (days ± SD), mean survival time (pinch skin graft): 11.7 ± 0.5 days
CO[C@H]1C[C@@H]2CC[C@@H](C)[C@@](O)(O2)C(=O)C(=O)N2CCCC[C@H]2C(=O)O[C@H]([C@H](C)C[C@@H]2CC[C@@H](OC(=O)NCCO)[C@H](OC)C2)CC(=O)[C@H](C)/C=C(\C)[C@@H](O)[C@@H](OC)C(=O)[C@H](C)C[C@H](C)/C=C/C=C/C=C/1C [Example 2, Rapamycin 42-ester with 2-hydroxyethyl carbamic acid]		1.22 and 1.09	Skin Graft (days ± SD), mean survival time (pinch skin graft): 10.3 ± 0.8 days
CO[C@H]1C[C@@H]2CC[C@@H](C)[C@@](O)(O2)C(=O)C(=O)N2CCCC[C@H]2C(=O)O[C@H]([C@H](C)C[C@@H]2CC[C@@H](OC(=O)NCCN(C)C)[C@H](OC)C2)CC(=O)[C@H](C)/C=C(\C)[C@@H](O)[C@@H](OC)C(=O)[C@H](C)C[C@H](C)/C=C/C=C/C=C/1C [Example 3, Rapamycin 42-ester with 2-(dimethylamino)ethyl carbamic acid]	6.5 nM	0.34	
CO[C@H]1C[C@@H]2CC[C@@H](C)[C@@](O)(O2)C(=O)C(=O)N2CCCC[C@H]2C(=O)O[C@H]([C@H](C)C[C@@H]2CC[C@@H](OC(=O)NN)[C@H](OC)C2)CC(=O)[C@H](C)/C=C(\C)[C@@H](O)[C@@H](OC)C(=O)[C@H](C)C[C@H](C)/C=C/C=C/C=C/1C [Example 4, Rapamycin 42-ester with aminocarbamic acid]	10 nM	0.45	Skin Graft (days ± SD), mean survival time (pinch skin graft): 9.8 ± 0.8 days
CO[C@H]1C[C@@H]2CC[C@@H](C)[C@@](O)(O2)C(=O)C(=O)N2CCCC[C@H]2C(=O)O[C@H]([C@H](C)C[C@@H]2CC[C@@H](OC(=O)NO)[C@H](OC)C2)CC(=O)[C@H](C)/C=C(\C)[C@@H](O)[C@@H](OC)C(=O)[C@H](C)C[C@H](C)/C=C/C=C/C=C/1C [Example 5, Rapamycin 42-ester with hydroxycarbamic acid]	2.1 nM	1.19	
CO[C@H]1C[C@@H]2CC[C@@H](C)[C@@](O)(O2)C(=O)C(=O)N2CCCC[C@H]2C(=O)O[C@H]([C@H](C)C[C@@H]2CC[C@@H](OC(=O)NCCc3ccccn3)[C@H](OC)C2)CC(=O)[C@H](C)/C=C(\C)[C@@H](O)[C@@H](OC)C(=O)[C@H](C)C[C@H](C)/C=C/C=C/C=C/1C [Example 6, Rapamycin 42-ester with 2-(pyridin-2-yl)-ethyl carbamic acid]		5.1	IC50 [1]: 0.8 nM; Skin Graft (days ± SD), mean survival time (pinch skin graft; 4 mg/kg): 11.40 ± 0.6 days
CO[C@H]1C[C@@H]2CC[C@@H](C)[C@@](O)(O2)C(=O)C(=O)N2CCCC[C@H]2C(=O)O[C@H]([C@H](C)C[C@@H]2CC[C@@H](OC(=O)NCCc3ccccn3)[C@H](OC)C2)CC(=O)[C@H](C)/C=C(\C)[C@@H](O)[C@@H](OC)C(=O)[C@H](C)C[C@H](C)/C=C/C=C/C=C/1C [Example 7, Rapamycin 42-ester with 2-(pyridin-2-yl)-ethyl carbamic acid hydrochloride salt]			LAF (ratio) ([1]; hydrochloride salt): 2.3; IC50 ([1]; hydrochloride salt): 1.2 nM; Skin Graft (days ± SD), mean survival time (pinch skin graft; hydrochloride salt, 4 mg/kg): 10.33 ± 0.5 days
CO[C@H]1C[C@@H]2CC[C@@H](C)[C@@](O)(O2)C(=O)C(=O)N2CCCC[C@H]2C(=O)O[C@H]([C@H](C)C[C@@H]2CC[C@@H](OC(=O)NCCc3ccccn3)[C@H](OC)C2)CC(=O)[C@H](C)/C=C(\C)[C@@H](O)[C@@H](OC)C(=O)[C@H](C)C[C@H](C)/C=C/C=C/C=C/1C [Example 8, Rapamycin 42-ester with 2-(pyridin-2-yl)ethylcarbamic acid methanesulfonate salt]			LAF (ratio) ([1]; methanesulfonate salt): 4.4; IC50 ([1]; methanesulfonate salt): 0.2 nM
CO[C@H]1C[C@@H]2CC[C@@H](C)[C@@](O)(O2)C(=O)C(=O)N2CCCC[C@H]2C(=O)O[C@H]([C@H](C)C[C@@H]2CC[C@@H](OC(=O)NCc3ccccn3)[C@H](OC)C2)CC(=O)[C@H](C)/C=C(\C)[C@@H](O)[C@@H](OC)C(=O)[C@H](C)C[C@H](C)/C=C/C=C/C=C/1C [Example 10, Rapamycin 42-ester with 2-pyridinylmethyl carbamic acid]	0.1 nM	3.8	Skin Graft (days ± SD), mean survival time (pinch skin graft): 10.17 ± 1.0 days
CO[C@H]1C[C@@H]2CC[C@@H](C)[C@@](O)(O2)C(=O)C(=O)N2CCCC[C@H]2C(=O)O[C@H]([C@H](C)C[C@@H]2CC[C@@H](OC(=O)NCc3cccnc3)[C@H](OC)C2)CC(=O)[C@H](C)/C=C(\C)[C@@H](O)[C@@H](OC)C(=O)[C@H](C)C[C@H](C)/C=C/C=C/C=C/1C [Example 12, Rapamycin 42-ester with 3-pyridinylmethyl carbamic acid]	1.1 nM	3.8	Skin Graft (days ± SD), mean survival time (pinch skin graft; 4 mg/kg): 9.80 ± 1.1 days
CO[C@H]1C[C@@H]2CC[C@@H](C)[C@@](O)(O2)C(=O)C(=O)N2CCCC[C@H]2C(=O)O[C@H]([C@H](C)C[C@@H]2CC[C@@H](OC(=O)N3CCN(CCCO)CC3)[C@H](OC)C2)CC(=O)[C@H](C)/C=C(\C)[C@@H](O)[C@@H](OC)C(=O)[C@H](C)C[C@H](C)/C=C/C=C/C=C/1C [Example 23, Rapamycin 42-ester with 4-(3-hydroxypropyl)piperazine-1-carboxylic acid]	3.4 nM	1.4	
CO[C@H]1C[C@@H]2CC[C@@H](C)[C@@](O)(O2)C(=O)C(=O)N2CCCC[C@H]2C(=O)O[C@H]([C@H](C)C[C@@H]2CC[C@@H](OC(=O)NCCCN(CCO)CCO)[C@H](OC)C2)CC(=O)[C@H](C)/C=C(\C)[C@@H](O)[C@@H](OC)C(=O)[C@H](C)C[C@H](C)/C=C/C=C/C=C/1C [Example 24, Rapamycin 42-ester with [3-[bis(2-hydroxyethyl)amino]propyl]carbamic acid]	40 nM	0.1	
CO[C@H]1C[C@@H]2CC[C@@H](C)[C@@](O)(O2)C(=O)C(=O)N2CCCC[C@H]2C(=O)O[C@H]([C@H](C)C[C@@H]2CC[C@@H](OC(=O)N3CCOCC3)[C@H](OC)C2)CC(=O)[C@H](C)/C=C(\C)[C@@H](O)[C@@H](OC)C(=O)[C@H](C)C[C@H](C)/C=C/C=C/C=C/1C [Example 26, Rapamycin 42-ester with morpholine-4-carboxylic acid]	0.2 nM	6.2	
CO[C@H]1C[C@@H]2CC[C@@H](C)[C@@](O)(O2)C(=O)C(=O)N2CCCC[C@H]2C(=O)O[C@H]([C@H](C)C[C@@H]2CC[C@@H](OC(=O)N3CCN(C)CC3)[C@H](OC)C2)CC(=O)[C@H](C)/C=C(\C)[C@@H](O)[C@@H](OC)C(=O)[C@H](C)C[C@H](C)/C=C/C=C/C=C/1C [Example 27, Rapamycin 42-ester with 4-methylpiperazine-1-carboxylic acid]	1.2 nM	1.2	
CO[C@H]1C[C@@H]2CC[C@@H](C)[C@@](O)(O2)C(=O)C(=O)N2CCCC[C@H]2C(=O)O[C@H]([C@H](C)C[C@@H]2CC[C@@H](OC(=O)N3CCNCC3)[C@H](OC)C2)CC(=O)[C@H](C)/C=C(\C)[C@@H](O)[C@@H](OC)C(=O)[C@H](C)C[C@H](C)/C=C/C=C/C=C/1C [Example 28, Rapamycin 42-ester with piperazine-1-carboxylic acid]	4.2 nM	1.1	
